Measurements: publication PMC12486440, “Design, synthesis, and in silico studies of new benzofuran–pyrazole hybrids as multi-kinase inhibitors with potential antiproliferative activity” (RSC Advances, 2025)

How the values were obtained:
BT-549 = settings: Homo sapiens, BT-549
NSCL cancer subpanel = assay: NCI 60 subpanel summary; format: cell-based, human
MDA-MB-231/ATCC = settings: Homo sapiens
SK-OV-3 = settings: single dose 10 μM; ovarian carcinoma
HOP-92 = settings: Homo sapiens, HOP-92
MDA-MB-468 = settings: single dose 10 μM; breast carcinoma
Colon cancer subpanel = assay: NCI 60 subpanel summary; format: cell-based, human
VEGFR-2 = target: T1, VEGFR-2 (Homo sapiens, UniProt P35968); assay: VEGFR-2 kinase inhibitory assay (Kinase-Glo MAX); format: biochemical
T1 construct: purchased
T1 sequence (P35968 20-1356): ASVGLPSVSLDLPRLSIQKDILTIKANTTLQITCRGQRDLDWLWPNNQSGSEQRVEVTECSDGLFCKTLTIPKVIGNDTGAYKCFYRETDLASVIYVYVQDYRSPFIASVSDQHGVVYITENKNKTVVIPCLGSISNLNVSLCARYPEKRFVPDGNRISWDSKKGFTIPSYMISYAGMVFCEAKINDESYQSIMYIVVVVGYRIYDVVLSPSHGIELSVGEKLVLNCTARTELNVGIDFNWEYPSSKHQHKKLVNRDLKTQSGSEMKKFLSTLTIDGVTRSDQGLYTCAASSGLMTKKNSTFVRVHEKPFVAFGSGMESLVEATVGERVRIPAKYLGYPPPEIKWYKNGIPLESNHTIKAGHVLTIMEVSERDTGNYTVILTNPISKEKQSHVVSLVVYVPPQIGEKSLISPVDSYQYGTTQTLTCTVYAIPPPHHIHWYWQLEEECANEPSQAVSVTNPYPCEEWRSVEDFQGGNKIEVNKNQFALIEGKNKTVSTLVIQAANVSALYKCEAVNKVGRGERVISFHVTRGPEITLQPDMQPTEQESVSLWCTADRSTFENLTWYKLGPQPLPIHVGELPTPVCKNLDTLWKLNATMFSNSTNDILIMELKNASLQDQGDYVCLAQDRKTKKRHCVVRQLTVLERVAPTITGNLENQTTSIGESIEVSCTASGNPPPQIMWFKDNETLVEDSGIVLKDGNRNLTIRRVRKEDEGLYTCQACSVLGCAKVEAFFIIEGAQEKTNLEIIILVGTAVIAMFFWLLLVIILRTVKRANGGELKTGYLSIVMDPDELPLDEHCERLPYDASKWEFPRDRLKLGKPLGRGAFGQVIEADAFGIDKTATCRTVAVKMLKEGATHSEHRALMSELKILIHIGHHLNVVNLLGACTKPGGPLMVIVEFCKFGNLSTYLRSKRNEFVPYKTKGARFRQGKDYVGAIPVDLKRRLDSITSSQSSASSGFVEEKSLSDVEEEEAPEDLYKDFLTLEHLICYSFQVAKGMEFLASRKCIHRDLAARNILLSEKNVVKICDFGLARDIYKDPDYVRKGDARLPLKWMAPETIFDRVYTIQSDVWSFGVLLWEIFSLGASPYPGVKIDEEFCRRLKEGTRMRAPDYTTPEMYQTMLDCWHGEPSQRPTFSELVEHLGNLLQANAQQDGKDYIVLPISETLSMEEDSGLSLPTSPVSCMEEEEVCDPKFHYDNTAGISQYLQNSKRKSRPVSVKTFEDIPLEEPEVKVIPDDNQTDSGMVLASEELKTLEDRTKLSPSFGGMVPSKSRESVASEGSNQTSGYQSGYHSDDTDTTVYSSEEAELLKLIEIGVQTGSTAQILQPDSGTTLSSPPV

COLO 205 = settings: Homo sapiens, COLO 205
c-Met = c-Met (Homo sapiens, UniProt P08581); assay: c-Met kinase inhibitory assay (HTRF); format: biochemical
Sequence of c-Met (P08581 25-1390): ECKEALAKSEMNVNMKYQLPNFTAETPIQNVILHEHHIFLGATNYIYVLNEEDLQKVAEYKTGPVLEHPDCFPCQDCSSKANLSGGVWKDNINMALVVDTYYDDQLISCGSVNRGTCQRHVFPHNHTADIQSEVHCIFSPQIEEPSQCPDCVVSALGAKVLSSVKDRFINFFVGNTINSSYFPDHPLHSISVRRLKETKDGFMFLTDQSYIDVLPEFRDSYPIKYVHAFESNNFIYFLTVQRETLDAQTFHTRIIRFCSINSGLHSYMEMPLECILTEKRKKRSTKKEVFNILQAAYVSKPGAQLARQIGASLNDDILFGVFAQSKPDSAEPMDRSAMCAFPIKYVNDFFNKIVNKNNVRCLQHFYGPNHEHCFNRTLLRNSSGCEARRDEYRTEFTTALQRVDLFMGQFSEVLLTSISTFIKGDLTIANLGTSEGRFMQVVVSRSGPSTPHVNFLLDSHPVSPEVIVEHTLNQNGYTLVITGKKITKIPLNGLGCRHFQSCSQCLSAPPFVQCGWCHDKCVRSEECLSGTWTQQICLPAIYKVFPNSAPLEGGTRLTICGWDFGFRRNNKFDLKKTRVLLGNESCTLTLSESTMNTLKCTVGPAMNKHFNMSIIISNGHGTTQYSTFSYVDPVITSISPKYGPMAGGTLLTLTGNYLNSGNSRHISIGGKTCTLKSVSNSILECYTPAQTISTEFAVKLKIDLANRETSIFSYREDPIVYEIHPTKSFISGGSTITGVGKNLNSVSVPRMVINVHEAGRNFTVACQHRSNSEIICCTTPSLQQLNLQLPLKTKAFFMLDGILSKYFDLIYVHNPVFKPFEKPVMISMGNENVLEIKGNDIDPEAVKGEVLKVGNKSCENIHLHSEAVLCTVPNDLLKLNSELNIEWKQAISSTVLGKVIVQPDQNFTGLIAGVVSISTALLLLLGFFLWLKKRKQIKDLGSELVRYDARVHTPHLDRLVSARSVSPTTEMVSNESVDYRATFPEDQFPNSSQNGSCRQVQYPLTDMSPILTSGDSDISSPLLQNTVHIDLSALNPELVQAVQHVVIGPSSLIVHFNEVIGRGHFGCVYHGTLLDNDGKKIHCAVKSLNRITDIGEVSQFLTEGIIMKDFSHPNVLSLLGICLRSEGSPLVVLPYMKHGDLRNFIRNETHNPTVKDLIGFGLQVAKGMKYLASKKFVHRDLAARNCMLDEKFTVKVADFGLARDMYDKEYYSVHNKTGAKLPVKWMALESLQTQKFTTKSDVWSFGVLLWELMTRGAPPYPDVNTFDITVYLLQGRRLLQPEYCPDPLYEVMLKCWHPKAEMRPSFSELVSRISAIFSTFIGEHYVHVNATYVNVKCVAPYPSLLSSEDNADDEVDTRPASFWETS

CCRF-CEM = settings: Homo sapiens, CCRF-CEM
CNS cancer subpanel = assay: NCI 60 subpanel summary; format: cell-based, human
B-Raf (V600E) = B-Raf (V600E) (Homo sapiens, UniProt P15056, V600E); assay: B-Raf kinase inhibitory assay (Kinase-Glo Max); format: biochemical
Sequence of B-Raf (V600E) (P15056 whole entry V600E): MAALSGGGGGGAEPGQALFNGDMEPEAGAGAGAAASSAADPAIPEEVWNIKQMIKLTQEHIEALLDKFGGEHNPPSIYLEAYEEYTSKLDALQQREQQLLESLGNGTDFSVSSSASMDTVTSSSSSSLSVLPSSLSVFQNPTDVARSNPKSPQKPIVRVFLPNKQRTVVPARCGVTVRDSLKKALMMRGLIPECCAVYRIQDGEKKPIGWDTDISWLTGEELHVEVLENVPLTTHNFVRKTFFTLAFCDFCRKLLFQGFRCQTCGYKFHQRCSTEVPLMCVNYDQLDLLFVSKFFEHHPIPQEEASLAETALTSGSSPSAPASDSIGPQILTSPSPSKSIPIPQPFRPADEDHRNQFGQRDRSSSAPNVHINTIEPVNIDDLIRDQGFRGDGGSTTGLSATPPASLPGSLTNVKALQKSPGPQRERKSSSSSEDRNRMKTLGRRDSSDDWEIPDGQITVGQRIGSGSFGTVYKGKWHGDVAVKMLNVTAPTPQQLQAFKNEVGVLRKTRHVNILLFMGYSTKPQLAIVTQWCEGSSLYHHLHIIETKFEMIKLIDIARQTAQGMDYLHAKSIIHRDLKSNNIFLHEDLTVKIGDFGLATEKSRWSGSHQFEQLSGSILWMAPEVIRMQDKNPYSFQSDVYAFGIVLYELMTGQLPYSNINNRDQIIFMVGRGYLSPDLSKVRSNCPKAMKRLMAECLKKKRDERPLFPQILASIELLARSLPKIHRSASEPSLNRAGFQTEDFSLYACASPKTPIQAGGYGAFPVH

RPMI-8226 = settings: Homo sapiens, RPMI-8226
Prostate cancer subpanel = assay: NCI 60 subpanel summary; format: cell-based, human
Breast cancer subpanel = assay: NCI 60 subpanel summary; format: cell-based, human
Melanoma subpanel = assay: NCI 60 subpanel summary; format: cell-based, human
EGFR (WT) = target: T2, EGFR (WT) (Homo sapiens, UniProt P00533); assay: EGFR WT kinase inhibitory assay (HTRF); format: biochemical
T2 construct: purchased Sigma
T2 sequence (P00533 25-1210): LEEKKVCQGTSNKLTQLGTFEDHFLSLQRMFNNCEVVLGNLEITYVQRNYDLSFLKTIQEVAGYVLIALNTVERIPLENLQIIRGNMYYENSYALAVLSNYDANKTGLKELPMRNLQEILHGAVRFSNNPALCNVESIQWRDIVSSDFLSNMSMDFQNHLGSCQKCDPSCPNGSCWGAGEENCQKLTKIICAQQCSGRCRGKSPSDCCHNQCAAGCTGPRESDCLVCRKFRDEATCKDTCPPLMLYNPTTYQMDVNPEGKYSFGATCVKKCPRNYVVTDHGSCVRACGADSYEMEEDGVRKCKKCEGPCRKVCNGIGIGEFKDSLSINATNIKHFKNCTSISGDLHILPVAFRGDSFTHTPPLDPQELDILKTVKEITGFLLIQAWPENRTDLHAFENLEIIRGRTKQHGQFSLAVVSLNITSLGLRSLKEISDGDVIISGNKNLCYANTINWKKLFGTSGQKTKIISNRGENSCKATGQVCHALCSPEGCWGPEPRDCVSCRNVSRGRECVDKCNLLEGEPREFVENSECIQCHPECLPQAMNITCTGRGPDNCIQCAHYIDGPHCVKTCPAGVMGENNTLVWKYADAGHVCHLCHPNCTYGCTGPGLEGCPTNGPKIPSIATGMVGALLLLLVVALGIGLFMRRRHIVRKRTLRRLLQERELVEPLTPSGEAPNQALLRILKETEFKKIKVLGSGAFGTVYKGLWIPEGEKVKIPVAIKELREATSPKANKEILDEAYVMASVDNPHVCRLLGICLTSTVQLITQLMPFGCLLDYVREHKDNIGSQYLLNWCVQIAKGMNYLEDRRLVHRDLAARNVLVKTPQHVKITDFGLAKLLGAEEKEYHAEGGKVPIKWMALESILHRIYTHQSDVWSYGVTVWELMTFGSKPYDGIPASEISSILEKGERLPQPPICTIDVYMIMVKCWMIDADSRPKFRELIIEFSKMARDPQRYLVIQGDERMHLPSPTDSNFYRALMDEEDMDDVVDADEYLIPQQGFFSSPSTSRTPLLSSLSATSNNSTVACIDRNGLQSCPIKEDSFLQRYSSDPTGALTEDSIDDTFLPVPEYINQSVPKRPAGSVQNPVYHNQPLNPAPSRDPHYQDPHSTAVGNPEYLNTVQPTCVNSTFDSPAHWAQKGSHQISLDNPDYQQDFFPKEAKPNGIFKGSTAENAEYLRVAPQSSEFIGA

[1] = single dose 10 μM, colon cancer
[2] = single dose 10 μM, renal carcinoma
[3] = Homo sapiens, subpanel mean graph midpoint, read-out: MG-MID (GI50)
[4] = full panel MG-MID / subpanel MG-MID
[5] = single dose 10 μM, ovarian carcinoma

c1ccc(-n2cc(C3CC(c4nc5ccccc5[nH]4)=NN3)c(-c3cc4ccccc4o3)n2)cc1 (stereo not drawn) [3d, 3-(Benzofuran-2-yl)-4-(3-(1H-benzo[d]imidazol-2-yl)-4,5-dihydro-1H-pyrazol-5-yl)-1-phenyl-1H-pyrazole]
GI50 (BT-549): 3.85 µM
GI50 (SW-620; Homo sapiens, SW-620): 5.95 µM
GI% (SW-620; [1]): 76.92%
GI50 (SN12C; Homo sapiens, SN12C): 3.42 µM
GI% (SN12C; [2]): 88.17%
GI50 (HT29; Homo sapiens, HT-29): 6.46 µM
GI% (HT29; [1]): 64.97%
GI50 (NSCL cancer subpanel; [3]): 4.02 µM
Selectivity index (NSCL cancer subpanel; [4]): 1.04
GI50 (MOLT-4; Homo sapiens, MOLT-4): 4.13 µM
GI% (MOLT-4; single dose 10 μM, leukemia): 88.75%
GI50 (MDA-MB-231/ATCC): 4.78 µM
GI% (SK-OV-3): 62.21%
GI50 (HOP-92): 4.78 µM
GI50 (SK-MEL-5; Homo sapiens, SK-MEL-5): 2.76 µM
GI% (SK-MEL-5; single dose 10 μM, melanoma): 90.42%
GI50 (HCT-116; Homo sapiens, HCT-116): 5.46 µM
GI% (HCT-116; [1]): 76.76%
GI50 (MALME-3M; Homo sapiens, Malme-3M): 6.19 µM
GI% (MALME-3M; single dose 10 μM, melanoma): 81.85%
GI50 (SF-539; Homo sapiens, SF-539): 3.97 µM
GI% (SF-539; single dose 10 μM, CNS cancer): 85.47%
GI50 (M14; Homo sapiens, M14): 3.22 µM
GI% (M14; single dose 10 μM, melanoma): 83.05%
GI50 (SNB-19; Homo sapiens, SNB-19): 3.77 µM
GI% (SNB-19; single dose 10 μM, CNS cancer): 92.86%
GI% (MDA-MB-468): 70.95%
GI50 (Colon cancer subpanel; [3]): 5.02 µM
Selectivity index (Colon cancer subpanel; [4]): 0.83
IC50 (VEGFR-2): 0.619 µM
times more effective at suppressing VEGFR-2 than sorafenib (VEGFR-2; ratio of IC50 values): 4.1
GI50 (COLO 205): 5.28 µM
IC50 (c-Met): 0.911 µM
GI50 (CCRF-CEM): 3.11 µM
GI50 (MCF7; Homo sapiens, MCF7): 2.75 µM
GI% (MCF7; single dose 10 μM, breast carcinoma): 85.98%
GI50 (CNS cancer subpanel; [3]): 3.55 µM
Selectivity index (CNS cancer subpanel; [4]): 1.18
GI50 (A498; Homo sapiens, A498): 12.7 µM
GI% (A498; [2]): 54.33%
GI50 (UACC-257; Homo sapiens, UACC-257): 6.24 µM
GI% (UACC-257; single dose 10 μM, melanoma): 79.15%
IC50 (B-Raf (V600E)): 0.175 µM
times less sensitive, B-Raf (V600E), than to vemurafenib (B-Raf (V600E); ratio of IC50 values): 2.8
GI50 (RPMI-8226): 3.04 µM
GI50 (Prostate cancer subpanel; [3]): 4.31 µM
Selectivity index (Prostate cancer subpanel; [4]): 0.97
GI50 (Breast cancer subpanel; [3]): 4.49 µM
Selectivity index (Breast cancer subpanel; [4]): 0.935
GI50 (NCI-H522; Homo sapiens, NCI-H522): 3.48 µM
GI% (NCI-H522; single dose 10 μM, non-small lung carcinoma): 96.77%
GI50 (HCC-2998; Homo sapiens, HCC 2998): 5.25 µM
GI% (HCC-2998; [1]): 70.76%
GI50 (Melanoma subpanel; [3]): 3.92 µM
Selectivity index (Melanoma subpanel; [4]): 1.07
GI50 (OVCAR-8; Homo sapiens, OVCAR-8): 5.88 µM
GI% (OVCAR-8; [5]): 86.94%
IC50 (EGFR (WT)): 0.398 µM
times more effective at suppressing EGFR (WT) than erlotinib (EGFR (WT); ratio of IC50 values): 1.2
GI50 (OVCAR-3; Homo sapiens, OVCAR-3): 4.91 µM
GI% (OVCAR-3; [5]): 81.63%
GI50 (SK-MEL-2; Homo sapiens, SK-MEL-2): 2.53 µM
GI% (SK-MEL-2; single dose 10 μM, melanoma): 99.44%
